Data from the SangsterLogP compilation.

Assay: method code SF-AS, from DOI: 10.1080/01483918708066826

SMILES	logP
O=C(O)Cc1ccc(-n2cccc2)cc1	0.76
O=C(O)C(c1ccccc1)n1cccc1 (stereo not given)	1.57
O=C(O)C(Cc1ccc(F)cc1)n1cccc1 (stereo not given)	2.04
O=C(O)C(Cc1ccccc1)n1cccc1 (stereo not given)	2.34
O=C(O)C(Cc1ccc(O)cc1)n1cccc1 (stereo not given)	1.56
O=C(O)C(Cc1ccc(Cl)cc1)n1cccc1 (stereo not given)	2.08

Further lines, results first:

logP	SMILES
2.49	O=C(O)C(c1ccccc1F)n1cccc1 (stereo not given)
2.3	O=C(O)C(c1ccc(Cl)cc1)n1cccc1 (stereo not given)
0.7	O=C(O)Cn1cccc1
2.04	O=C(O)c1ccccc1-n1cccc1
